Measured values reported in patent US12365709B2, “Immunomodulatory peptide” (INSTITUT NATIONAL UNI[…]-FRANCOIS CHAMPOLLION, priority 2017, dated 2025).
No end group written: not given here.

What was measured:
[1] = tested on: macrophages derived from human monocytes; assay: Removal of C. albicans by macrophages derived from human monocytes (CFU); type: cell-based; details: macrophages treated with peptide 24 hours, then C. albicans 0.3 yeasts per macrophage, 4 hours; vs untreated
Method: The macrophages derived from human monocytes have been treated, or not, with the peptide P17 or fragments of it then incubated at 37° C. for 24 hours. These cells have been incubated for 40 minutes at 37° C. with C. albicans (at a ratio of 0.3 yeasts per macrophage) and the non-bound yeasts are removed by washing. These macrophages are thus incubated at 37° C. for 4 hours. After incubation, the environment has been removed and the cells have been lysed. The units forming colonies (CFU) of C. albicans have been determined on Sabouraud boxes after spreading and culturing for 48 hours at 37° C.

[2] = tested on: macrophages derived from human monocytes; assay: Production of ROS by macrophages derived from human monocytes in response to C. albicans (luminol chemiluminescence); type: cell-based; details: macrophages treated 24 hours; yeast ratio per macrophage 3:1; vs untreated
Text: To analyse the production of ROS, the macrophages derived from human monocytes have been treated, or not, with the peptide P17, P17, non-amidated, or with the following P17 fragments, P17(1-5), P17(1-7), P17(1-9), P17(1-11), P17(3-13), P17(5-13), P17(7-13) and P17(9-13); the fragments P17(1-5), P17(1-7), P17(1-9), P17(1-11) not being amidated at the C-terminal […] and the fragments P17(3-13), P17(5-13), P17(7-13) and P17(9-13) being amidated at the C-terminal. Then, the macrophages derived from human monocytes thus treated have been incubated at 37° C. for 24 hours. The production of reactive derivatives of oxygen (ROS) has been measured by chemiluminescence in the presence of 5-amino-2,3-dihydro-1,4-phthalazinedione (luminol) (EnVision; PerkinElmer). The chemiluminescence generation has been continually measured for 1 hour 30 minutes after incubation of cells with luminol (66 μM) in the presence, or not, of C. albicans (yeast ratio per macrophage: 3:1).

[3] = tested on: macrophages derived from human monocytes; assay: Binding and phagocytosis of C. albicans by macrophages derived from human monocytes; type: cell-based; details: macrophages treated 24 hours, GFP yeasts, vs untreated
Method: To analyse the binding and the phagocytosis of C. albicans, macrophages derived from human monocytes have been treated, or not, with the peptide P17, then incubated at 37° C. for 24 hours. The macrophages derived from human monocytes have been brought together with the yeasts marked GFP (ratio 1/6) then incubated at 4° C. for 20 minutes, in order to evaluate the binding. The phagocytosis has been evaluated after 1 hour of incubation at 37° C. The quantity of C. albicans bound or ingested by macrophages derived from human monocytes has been determined by measuring the fluorescence by using a fluorimeter (PerkinElmer EnVision).

[4] = tested on: macrophages derived from human monocytes; assay: Production of IL-1β, TNFα, IL-10 and IL-12 by macrophages derived from human monocytes in response to C. albicans (ELISA); type: cell-based; details: P17 24 hours then C. albicans 3:1 for 8 hours
Method: Macrophages derived from human […] have been stimulated with the peptide P17 for 24 hours, then these macrophages activated by the peptide P17 have been stimulated with C. albicans at a yeast per macrophage ratio of 3:1 for 8 hours. The production of IL-1β, TNFα, IL-10 and IL-12 in cell supernatants has been determined by ELISA (OptiElA BD Biosciences).

C-type lectin receptors = assay: Protein expression of C-type lectin receptors (flow cytometry); type: cell-based, human; details: P17 200 μg/ml, 24 hours
Method: To analyse the protein level of C-type lectin receptors, the macrophages derived from human monocytes have been treated, or not, with the peptide P17 (200 μg/ml) then incubated at 37° C. for 24 hours. The cells collected have been centrifugated at 1500 rpm for 10 minutes and […] have been suspended in the PBS supplemented with 1% foetal calf serum (FCS). The cells have been marked with antibodies coupled with different fluorochromes directed against the Dectin-1 receptor (mAb; R&D FAB1859C-100, 1/40), DC-SIGN (mAb; BD Biosciences 551 265, 1/20) CD16 (mAb; PNIM 0814, 1/20), CD36 (mAb; BD Biosciences 550 956, 1/40) and the mannose receptor (specific MR (mannose receptor) ligand) conjugated FITC (Sigma A7790, 1 mg/ml 1/100)). The analysis has been carried out by flow cytometry (Becton Dickinson FACScalibur) over a population of 10000 cells.

C. albicans = assay: Experimental gastrointestinal Candida murine model; type: in vivo; details: P17 10 μg per mouse i.p., vs untreated mice
Method: For in vivo experiments, a gastrointestinal infection with the C. albicans strain 98/26135 has been established by feeding with 50×10^6 of C. albicans per mouse (n=8 per group). No antibiotic or immunosuppressant treatment has been used to facilitate the infection of mucous membranes of the oral cavity and of the gastrointestinal tract. The mice have been treated intraperitoneally (i.p.) with the peptide P17 (10 μg per mouse) or with a saline solution for control groups, 1 day before the injection with C. albicans, 1 day after infection and then every 2 days (5 injections). The body weight of each mouse has been recorded daily. On the 8th day after treatment (7 days after infection), all mice have been euthanised by asphyxiation with CO2.
The oesophagus, the stomach, the caecum and the liver have been removed aseptically to evaluate the colonisation by C. albicans. The peritoneal macrophages of the mice have been sampled and the ex vivo capacities thereof to remove and to phagocytose Candida albicans have been determined. The production of ROS, IL-(3 and IL-12 by these macrophages in response to Candida albicans have also been evaluated.

EL4 tumour cells = assay: Number of lymphoma T tumour cells (EL4) in the presence of murine macrophages; type: cell-based; details: co-culture with macrophages polarised by P17; vs untreated macrophages
Method: Peritoneal murine macrophages have been treated, or not, with the peptide P17 then incubated at 37° C. for 24 hours. These macrophages have been incubated for 40 minutes at 37° C. with luminescent lymphoma T cells (EL4-luc) and unbound cells are removed by washing. These macrophages are thus incubated at 37° C. for 4 hours. After incubation, the number of lymphoma T cells (EL4-luc) is evaluated by chemiluminescence.

[5] = tested on: peritoneal murine macrophages; assay: Production of ROS by murine macrophages in response to murine lymphoma T tumour cells (EL4); type: cell-based; details: murine macrophages treated with P17 24 hours
Method: To analyse the production of ROS, peritoneal murine macrophages have been treated, or not, with the peptide P17 then incubated at 37° C. for 24 hours. The production of reactive derivatives of oxygen (ROS) has been measured by chemiluminescence in the presence of 5-amino-2,3-dihydro-1,4-phthalazinedione (luminol) (EnVision; PerkinElmer). The chemiluminescence generation has been continually measured for 1 hour 30 minutes after incubation of cells with luminol […] in the presence, or not, of EL4 lymphoma T tumour cells.

Substance | removal of C. albicans by macrophages [1] | production of ROS in response to C. albicans [2] | also measured
LFKEI (LFKEI-OH) [P17(1-5)] | does not induce the production of ROS, nor the removal of Candida albicans | does not induce the production of ROS | –
LFKEILEKIKA (LFKEILEKIKA-OH) [P17(1-11)] | does not induce the production of ROS, nor the removal of Candida albicans | does not induce the production of ROS | –
KEILEKIKAKL [P17(3-13)] | activity close to that of P17 | conserve the activity | –
LFKEILE (LFKEILE-OH) [P17(1-7)] | does not induce the production of ROS, nor the removal of Candida albicans | does not induce the production of ROS | –
LFKEILEKIKAKL [non-amidated P17] (LFKEILEKIKAKL-OH; listed as Tetramorium bicarinatum) | – | C-terminal amidation of P17 is essential to the pro-inflammatory activity | –
IKAKL [P17(9-13)] | – | Only the fragments P17(3-13) and P17(5-13) conserve the activity | –
LFKEILEKIKAKL [P17] (LFKEILEKIKAKL-NH2) | considerably increases the capacity of human macrophages to remove in vitro C. albicans | higher production of ROS | capacity to recognise (binding) C. albicans ([3]; 4° C. for 20 minutes): greater capacity to recognise; capacity to phagocytose C. albicans ([3]; 1 hour at 37° C.): greater capacity to recognise and to phagocytose C. albicans; production of IL-1β [4]: higher production; production of TNFα [4]: higher production; expression of C-type lectin receptors on the surface of macrophages (C-type lectin receptors): overexpression of C-type lectin receptors; loss of body weight (C. albicans; mice with gastrointestinal candidiasis): lesser loss of weight; gastrointestinal colonisation by Candida albicans (C. albicans; mice): significantly lower; number of EL4 tumour cells (EL4 tumour cells): decreases significantly; production of ROS in response to EL4 tumour cells [5]: increased production of ROS
LFKEILEKI (LFKEILEKI-OH) [P17(1-9)] | does not induce the production of ROS, nor the removal of Candida albicans | does not induce the production of ROS | –
EKIKAKL [P17(7-13)] | – | Only the fragments P17(3-13) and P17(5-13) conserve the activity | –
ILEKIKAKL [P17(5-13)] | activity close to that of P17 | conserve the activity | –
